Measurements taken from patent publication US11325955B2, “Stabilized anti-microbial peptides for the treatment of antibiotic-resistant bacterial infections” (priority 2017, dated 2022).
Values after ≈ are worked out from the molar mass of the structure shown. Like-named read-outs stand apart in the source and are kept apart here. Positions of bridges follow the written chain, without caps; N, C: chain ends. Non-standard residues stand in square brackets, D forms with d. Residues, ends and D or L forms follow the SMILES beside them. S5 = C=CCCC[C@](C)(N)C(=O)O; Nle = CCCC[C@H](N)C(=O)O

Legend:
[1] = system: human red blood cells (RBCs); experiment: Hemolytic activity assay; format: cell-based; conditions: peptide at 25 μg/ml, 1 hour at 37° C.
Description: For the determination of hemolytic activity, human blood samples were centrifuged to isolate red blood cells (RBCs), which are then washed and suspended in phosphate-buffered saline to yield a 1% (v/v) suspension. The suspension was then added to serial dilutions of peptide stocks in water in clear round-bottom polypropylene 96-well plates and the plates were incubated for 1 hour at 37° C. After incubation, the plates were centrifuged and the supernatant was isolated to determine the amount of hemoglobin released using a spectrophotometer (570 nm), according to the equation: % Hemolysis=(Treated Absorbance−Untreated Control Absorbance)/(1% Triton-X100 Treated Absorbance−Untreated Control Absorbance). The minimum hemolytic concentration (MHC) is the peptide concentration at which there is less than 1% hemoglobin release.

[2] = system: E. coli clinical isolates that harbor the MCR-1 plasmid; format: cell-based
Description: StAMPs were screened against a panel of MDR clinical samples obtained from the Antimicrobial Resistance Isolate Bank of the Centers for Disease Control and Prevention (Atlanta, Ga.).
(§1) The following microbroth dilution protocol was adapted to determine the minimum inhibitory concentration (MIC) of each peptide. First, Mueller-Hinton broth (MHB) was passed through an anion exchange column to remove polyanionic species and generate refined MHB. […] Briefly, bacterial cells were grown overnight in refined MHB at 37° C. and then diluted and allowed to grow again for several hours. Serial dilutions of peptide stocks in water (10 μl) were prepared using clear round-bottom polypropylene 96-well plates. Then 90 μl of bacteria in refined MHB was added to give a final inoculum of 5×10^5 CFU/ml. The plates were then covered with porous tape to reduce evaporation, and incubated for 20-24 hours at 37° C. The MIC is the minimum peptide concentration at which no visible growth was observed.
The first three StAMPs of Table 2 in Example 3 were then tested against 39 clinical isolates of A. baumannii with various degrees of colistin resistance (Table 3, 4).

A baumannii = format: cell-based
Description: as §1

B cereus = format: cell-based
Description: as §1

E coli = format: cell-based
Description: as §1

P aeruginosa = format: cell-based
Description: as §1

S aureus = format: cell-based
Description: as §1

[3] = system: primary human renal proximal tubule epithelial cells (pRPTECs); experiment: Renal toxicity assay (pRPTEC lysis, LDH release)
Description: (§3) In one embodiment, pRPTECs are seeded at a density of 10,000 cells per well on 96 well plates and incubated for 48 hours at 37° C. Cells are then treated with different concentrations of the StAMP and incubated for another 24-to-48 hour period. Cell viability is then determined and/or lactate dehydrogenase (LDH) release is measured.
(§4) Briefly, pRPTECs in complete growth cell medium were seeded in a 96 well plate at a density of 10,000 cells per well and incubated at 37° C. for 48 hours. Complete medium was then removed and replaced with a toxicity assay medium to which various concentrations of StAMP were added. Cells were then further incubated for 24 to 48 hours after which cell medium was collected and assayed for the presence of Lactate Dehydrogenase (LDH) using a Cytotoxicity Detection Kit (LDH) (Roche).

[4] = system: primary human renal proximal tubule epithelial cells (pRPTECs); conditions: for pRPTEC lysis (% LDH release) compared to Mag(i+4)1,15(A9K): 90 minute incubation, FIG. 2; for pRPTEC lysis (% LDH release), long-term lytic activity: 48 hours incubation, FIG. 3
Description: as §3, §4

[5] = system: Methicillin-resistant S Aureus; format: cell-based
Description: as §1
(§2) StAMPs Mag(i+4)2,15(A9K), Pleu(i+4)1,15(A9K) and Pleu(i+4)1,15 were also then tested against 4 clinical isolates of S. aureus of which two were methicillin-susceptible (MSSA) and two were methicillin-resistant (MRSA) (Table 5).

[6] = system: Methicillin-susceptible S Aureus; format: cell-based
Description: as §1, §2

[7] = E. coli CDC Bank# 346, contains MCR-1 plasmid
[8] = E. coli CDC Bank# 349, contains MCR-1 plasmid

Compound	% Hemolysis at 25 μg/ml [1]	Antimicrobial Activity MIC [2, 7]	Antimicrobial Activity MIC [2, 8]	MIC A baumannii (A baumannii)	MIC B cereus (B cereus)	MIC E coli (E coli)	MIC P aeruginosa (P aeruginosa)	MIC S aureus (S aureus)	toxicity on pRPTECs (membranolysis) [3]	pRPTEC lysis (% LDH release) relative to Mag(i+4)1,15(A9K) ([4]; 24-hour incubation, FIG. 1)	pRPTEC lysis (% LDH release) compared to Mag(i+4)1,15(A9K) [4]	pRPTEC lysis (% LDH release), long-term lytic activity [4]	Antimicrobial Activity MIC [5]	Antimicrobial Activity MIC [6]
CCCC[C@H](NC(=O)[C@]1(C)CCCC=CCCC[C@](C)(NC(=O)[C@H](C)NC(=O)[C@H](CCCCN)NC(=O)CNC(=O)[C@H](Cc2ccccc2)NC(=O)[C@H](CCCCN)NC(=O)[C@H](CCCCN)NC(=O)[C@H](CCCCN)NC(=O)[C@H](CO)NC(=O)[C@H](Cc2c[nH]cn2)NC(=O)[C@]2(C)CCCC=CCCC[C@](C)(NC(=O)CN)C(=O)NCC(=O)N[C@@H](CCCCN)C(=O)N[C@@H](Cc3ccccc3)C(=O)N2)C(=O)N[C@@H](C(C)C)C(=O)NCC(=O)N[C@@H](CCC(=O)O)C(=O)N1)C(=O)N[C@@H](CC(N)=O)C(=O)N[C@@H](CO)C(N)=O [Mag(i+4)1,15(A9K), GXGKFXHSKKKFGKAXVGEXBNS] (H-G[S5]GKF[S5]HSKKKFGKA[S5]VGE[S5][Nle]NS-NH2; staple 2-6, 16-20)	1.9%	1.6 µg/mL	3.1 µg/mL	1.6 µg/mL (≈ 0.635 µM)	6.2 µg/mL (≈ 2.46 µM)	1.6 µg/mL (≈ 0.635 µM)	3.1 µg/mL (≈ 1.23 µM)	50 µg/mL (≈ 19.8 µM)	could cause membranolysis of pRPTECs at relatively low concentrations	–	–	–	–	–
CC(C)[C@@H]1NC(=O)[C@@](C)(NC(=O)[C@H](C)NC(=O)[C@H](CCCCN)NC(=O)CNC(=O)[C@H](Cc2ccccc2)NC(=O)[C@H](CCCCN)NC(=O)[C@H](CCCCN)NC(=O)[C@H](CCCCN)NC(=O)[C@H](CO)NC(=O)[C@H](Cc2c[nH]cn2)NC(=O)[C@]2(C)CCCC=CCCC[C@](C)(NC(=O)CN)C(=O)NCC(=O)N[C@@H](CCCCN)C(=O)N[C@@H](Cc3ccccc3)C(=O)N2)CCCC=CCCC[C@@](C)(C(=O)N[C@@H](C)C(=O)N[C@@H](CC(N)=O)C(=O)N[C@@H](CO)C(N)=O)NC(=O)[C@H](CCC(=O)O)NC(=O)CNC1=O [Mag(i+4)1,15(A9K, B21A), GXGKFXHSKKKFGKAXVGEXANS] (H-G[S5]GKF[S5]HSKKKFGKA[S5]VGE[S5]ANS-NH2; staple 2-6, 16-20)	–	–	–	–	50 µg/mL (≈ 20.2 µM)	6.2 µg/mL (≈ 2.5 µM)	8.8 µg/mL (≈ 3.55 µM)	>50 µg/mL	–	significantly attenuated pRPTEC lysis	–	–	–	–
CC(C)[C@@H]1NC(=O)[C@@](C)(NC(=O)[C@H](C)NC(=O)[C@H](CCCCN)NC(=O)CNC(=O)[C@H](Cc2ccccc2)NC(=O)[C@H](CCCCN)NC(=O)[C@H](CCCCN)NC(=O)[C@H](CCCCN)NC(=O)[C@H](CO)NC(=O)[C@H](Cc2c[nH]cn2)NC(=O)[C@]2(C)CCCC=CCCC[C@](C)(NC(=O)CN)C(=O)NCC(=O)N[C@@H](CCCCN)C(=O)N[C@@H](Cc3ccccc3)C(=O)N2)CCCC=CCCC[C@@](C)(C(=O)N[C@@H](C)C(=O)N[C@@H](CCCCN)C(=O)N[C@@H](CCCCN)C(N)=O)NC(=O)[C@H](CCC(=O)O)NC(=O)CNC1=O [Mag(i+4)1,15(A9K, B21A, N22K, S23K), GXGKFXHSKKKFGKAXVGEXAKK] (H-G[S5]GKF[S5]HSKKKFGKA[S5]VGE[S5]AKK-NH2; staple 2-6, 16-20)	–	–	–	0.8 µg/mL (≈ 0.316 µM)	50 µg/mL (≈ 19.7 µM)	1.6 µg/mL (≈ 0.632 µM)	3.1 µg/mL (≈ 1.22 µM)	>50 µg/mL	–	–	markedly reduced lytic activity toward pRPTECs	lowered long-term lytic activity	–	–
CC(C)[C@@H]1NC(=O)[C@@](C)(NC(=O)[C@H](C)NC(=O)[C@H](CCCCN)NC(=O)CNC(=O)[C@H](Cc2ccccc2)NC(=O)[C@H](CCCCN)NC(=O)[C@H](CCCCN)NC(=O)[C@H](CCCCN)NC(=O)[C@H](CO)NC(=O)[C@H](Cc2c[nH]cn2)NC(=O)[C@]2(C)CCCC=CCCC[C@](C)(NC(=O)CN)C(=O)NCC(=O)N[C@@H](CCCCN)C(=O)N[C@@H](Cc3ccccc3)C(=O)N2)CCCC=CCCC[C@@](C)(C(=O)N[C@@H](CCCCN)C(=O)N[C@@H](CC(N)=O)C(=O)N[C@@H](CO)C(N)=O)NC(=O)[C@H](CCC(=O)O)NC(=O)CNC1=O [Mag(i+4)1,15(A9K, B21K), GXGKFXHSKKKFGKAXVGEXKNS] (H-G[S5]GKF[S5]HSKKKFGKA[S5]VGE[S5]KNS-NH2; staple 2-6, 16-20)	–	–	–	1.6 µg/mL (≈ 0.631 µM)	35.4 µg/mL (≈ 14 µM)	3.1 µg/mL (≈ 1.22 µM)	12.5 µg/mL (≈ 4.93 µM)	>50 µg/mL	–	–	markedly reduced lytic activity toward pRPTECs	lowered long-term lytic activity	–	–
CCCC[C@H](NC(=O)[C@]1(C)CCCC=CCCC[C@](C)(NC(=O)[C@H](C)NC(=O)[C@H](CCCCN)NC(=O)CNC(=O)[C@H](Cc2ccccc2)NC(=O)[C@H](CCCCN)NC(=O)[C@H](CCCCN)NC(=O)[C@H](CCCCN)NC(=O)[C@H](CO)NC(=O)[C@]2(C)CCCC=CCCC[C@](C)(NC(=O)[C@@H](NC(=O)CN)[C@@H](C)CC)C(=O)N[C@@H](CCCCN)C(=O)N[C@@H](Cc3ccccc3)C(=O)N[C@@H](CC(C)C)C(=O)N2)C(=O)N[C@@H](C(C)C)C(=O)NCC(=O)N[C@@H](CCC(=O)O)C(=O)N1)C(=O)N[C@@H](CC(N)=O)C(=O)N[C@@H](CO)C(N)=O [Mag(i+4)2,15(A9K), GIXKFLXSKKKFGKAXVGEXBNS] (H-GI[S5]KFL[S5]SKKKFGKA[S5]VGE[S5][Nle]NS-NH2; staple 3-7, 16-20)	17.9%	2.2 µg/mL	3.1 µg/mL	–	–	–	–	–	–	–	–	–	1.6 µg/mL	1.6 µg/mL
CC(C)C[C@H](NC(=O)[C@H](Cc1ccc(O)cc1)NC(=O)[C@H](Cc1c[nH]cn1)NC(=O)[C@@H](NC(=O)[C@H](CC(C)C)NC(=O)[C@]1(C)CCCC=CCCC[C@](C)(NC(=O)[C@H](Cc2c[nH]cn2)NC(=O)[C@H](CCCCN)NC(=O)CNC(=O)[C@@H](NC(=O)[C@H](Cc2c[nH]cn2)NC(=O)[C@H](C)NC(=O)[C@H](CCCCN)NC(=O)[C@H](CCCCN)NC(=O)[C@H](CCCCN)NC(=O)[C@]2(C)CCCC=CCCC[C@](C)(NC(=O)CN)C(=O)NCC(=O)N[C@@H](CO)C(=O)N[C@@H](Cc3ccccc3)C(=O)N2)C(C)C)C(=O)NCC(=O)N[C@@H](CCCCN)C(=O)N[C@@H](C)C(=O)N1)[C@@H](C)O)C(N)=O [Pleu(i+4)1,15(A9K), GXGSFXKKKAHVGKHXGKAXLTHYL] (H-G[S5]GSF[S5]KKKAHVGKH[S5]GKA[S5]LTHYL-NH2; staple 2-6, 16-20)	16.3%	1.6 µg/mL	1.6 µg/mL	–	–	–	–	–	–	–	–	–	3.1 µg/mL	3.1 µg/mL
CC(C)C[C@H](NC(=O)[C@H](Cc1ccc(O)cc1)NC(=O)[C@H](Cc1c[nH]cn1)NC(=O)[C@@H](NC(=O)[C@H](CC(C)C)NC(=O)[C@]1(C)CCCC=CCCC[C@](C)(NC(=O)[C@H](Cc2c[nH]cn2)NC(=O)[C@H](CCCCN)NC(=O)CNC(=O)[C@@H](NC(=O)[C@H](Cc2c[nH]cn2)NC(=O)[C@H](C)NC(=O)[C@H](C)NC(=O)[C@H](CCCCN)NC(=O)[C@H](CCCCN)NC(=O)[C@]2(C)CCCC=CCCC[C@](C)(NC(=O)CN)C(=O)NCC(=O)N[C@@H](CO)C(=O)N[C@@H](Cc3ccccc3)C(=O)N2)C(C)C)C(=O)NCC(=O)N[C@@H](CCCCN)C(=O)N[C@@H](C)C(=O)N1)[C@@H](C)O)C(N)=O [Pleu(i+4)1,15, GXGSFXKKAAHVGKHXGKAXLTHYL] (H-G[S5]GSF[S5]KKAAHVGKH[S5]GKA[S5]LTHYL-NH2; staple 2-6, 16-20)	88.2%	–	–	–	–	–	–	–	–	–	–	–	3.1 µg/mL	3.1 µg/mL
